From PMC7156458, “Synthetic biology based construction of biological activity-related library of fungal decalin-containing diterpenoid pyrones” (Nature Communications, 2020)

Molecular target: Aβ42 (Homo sapiens, UniProt P05067)
Assay: Th-T (thioflavin-T) assay of Aβ42 aggregation
Assay type: biochemical
Conditions: for Th-T assay plate reading, mean of three wells (Supplementary Fig. 47): source data, Ab alone and No Ab as controls

Chain of Aβ42 (P05067 672-713): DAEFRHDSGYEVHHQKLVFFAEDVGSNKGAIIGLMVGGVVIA

- Th-T fluorescence, mean of three wells (Aβ42 aggregation time course, reading M117): 3.606
- Th-T fluorescence, mean of three wells (Aβ42 aggregation time course, reading M118): 3.615
- Th-T fluorescence, mean of three wells (Aβ42 aggregation time course, reading M119): 3.596
- Th-T fluorescence, mean of three wells (Aβ42 aggregation time course, reading M120): 3.613
- Th-T fluorescence, mean of three wells (Aβ42 aggregation time course, reading M121): 3.583
- Th-T fluorescence, mean of three wells (Aβ42 aggregation time course, reading M122): 3.577
- Th-T fluorescence, mean of three wells (Aβ42 aggregation time course, reading M123): 3.546
- Th-T fluorescence, mean of three wells (Aβ42 aggregation time course, reading M124): 3.572
- Th-T fluorescence, mean of three wells (Aβ42 aggregation time course, reading M125): 3.555
- Th-T fluorescence, mean of three wells (Aβ42 aggregation time course, reading M126): 3.529
- Th-T fluorescence, mean of three wells (Aβ42 aggregation time course, reading M127): 3.54
- Th-T fluorescence, mean of three wells (Aβ42 aggregation time course, reading M128): 3.504
- Th-T fluorescence, mean of three wells (Aβ42 aggregation time course, reading M129): 3.564
- Th-T fluorescence, mean of three wells (Aβ42 aggregation time course, reading M130): 3.54
- Th-T fluorescence, mean of three wells (Aβ42 aggregation time course, reading M131): 3.5322
- Th-T fluorescence, mean of three wells (Aβ42 aggregation time course, reading M132): 3.554
- Th-T fluorescence, mean of three wells (Aβ42 aggregation time course, reading M133): 3.505
- Th-T fluorescence, mean of three wells (Aβ42 aggregation time course, reading M134): 3.525
- Th-T fluorescence, mean of three wells (Aβ42 aggregation time course, reading M135): 3.538
- Th-T fluorescence, mean of three wells (Aβ42 aggregation time course, reading M136): 3.5303
- Th-T fluorescence, mean of three wells (Supplementary Fig. 47, reading M137): 3.5763
- Th-T fluorescence, mean of three wells (Supplementary Fig. 47, reading M138): 3.512
- Th-T fluorescence, mean of three wells (Supplementary Fig. 47, reading M139): 3.524
- Th-T fluorescence, mean of three wells (Supplementary Fig. 47, reading M140): 3.521
- Th-T fluorescence, mean of three wells (Supplementary Fig. 47, reading M141): 3.497
- Th-T fluorescence, mean of three wells (Supplementary Fig. 47, reading M142): 3.5241
- Th-T fluorescence, mean of three wells (Supplementary Fig. 47, reading M143): 3.477
- Th-T fluorescence, mean of three wells (Supplementary Fig. 47, reading M144): 3.474
- Th-T fluorescence, mean of three wells (Supplementary Fig. 47, reading M145): 3.514
- Th-T fluorescence, mean of three wells (Supplementary Fig. 47 source data, measurement M37 of time course): 3.725
- Th-T fluorescence, mean of three wells (Supplementary Fig. 47 source data, measurement M38 of time course): 3.672
- Th-T fluorescence, mean of three wells (Supplementary Fig. 47 source data, measurement M39 of time course): 3.686
- Th-T fluorescence, mean of three wells (Supplementary Fig. 47 source data, measurement M40 of time course): 3.696
- Th-T fluorescence, mean of three wells (Supplementary Fig. 47 source data, measurement M41 of time course): 3.723
- Th-T fluorescence, mean of three wells (Supplementary Fig. 47 source data, measurement M42 of time course): 3.705
- Th-T fluorescence, mean of three wells (Supplementary Fig. 47 source data, measurement M43 of time course): 3.698
- Th-T fluorescence, mean of three wells (Supplementary Fig. 47 source data, measurement M44 of time course): 3.759
- Th-T fluorescence, mean of three wells (Supplementary Fig. 47 source data, measurement M45 of time course): 3.771
- Th-T fluorescence, mean of three wells (Supplementary Fig. 47 source data, measurement M46 of time course): 3.76
- Th-T fluorescence, mean of three wells (Supplementary Fig. 47 source data, measurement M47 of time course): 3.73
- Th-T fluorescence, mean of three wells (Supplementary Fig. 47 source data, measurement M48 of time course): 3.764
- Th-T fluorescence, mean of three wells (Supplementary Fig. 47 source data, measurement M49 of time course): 3.767
- Th-T fluorescence, mean of three wells (Supplementary Fig. 47 source data, measurement M50 of time course): 3.788
- Th-T fluorescence, mean of three wells (Supplementary Fig. 47 source data, measurement M51 of time course): 3.755
- Th-T fluorescence, mean of three wells (Supplementary Fig. 47 source data, measurement M52 of time course): 3.752
- Th-T fluorescence, mean of three wells (Supplementary Fig. 47 source data, measurement M53 of time course): 3.724
- Th-T fluorescence, mean of three wells (Supplementary Fig. 47 source data, measurement M54 of time course): 3.756
- Th-T fluorescence, mean of three wells (Supplementary Fig. 47 source data, measurement M55 of time course): 3.771
- Th-T fluorescence, mean of three wells (Supplementary Fig. 47 source data, measurement M56 of time course): 3.762
- Th-T assay plate reading, mean of three wells (Supplementary Fig. 47) (measurement M1): 0.2149
- Th-T assay plate reading, mean of three wells (Supplementary Fig. 47) (measurement M2): 0.2276
- Th-T assay plate reading, mean of three wells (Supplementary Fig. 47) (measurement M3): 0.2865
- Th-T assay plate reading, mean of three wells (Supplementary Fig. 47) (measurement M4): 0.3444
- Th-T assay plate reading, mean of three wells (Supplementary Fig. 47) (measurement M5): 0.4109
- Th-T assay plate reading, mean of three wells (Supplementary Fig. 47) (measurement M6): 0.436
- Th-T assay plate reading, mean of three wells (Supplementary Fig. 47) (measurement M7): 0.4804
- Th-T assay plate reading, mean of three wells (Supplementary Fig. 47) (measurement M8): 0.5318
- Th-T assay plate reading, mean of three wells (Supplementary Fig. 47) (measurement M9): 0.5868
- Th-T assay plate reading, mean of three wells (Supplementary Fig. 47) (measurement M10): 0.6365
- Th-T assay plate reading, mean of three wells (Supplementary Fig. 47) (measurement M11): 0.7058
- Th-T assay plate reading, mean of three wells (Supplementary Fig. 47) (measurement M12): 0.8261
- Th-T assay plate reading, mean of three wells (Supplementary Fig. 47) (measurement M13): 1.145
- Th-T assay plate reading, mean of three wells (Supplementary Fig. 47) (measurement M14): 1.723
- Th-T assay plate reading, mean of three wells (Supplementary Fig. 47) (measurement M15): 2.352
- Th-T assay plate reading, mean of three wells (Supplementary Fig. 47) (measurement M16): 2.814
- Th-T fluorescence, mean of three wells (reading M17, Supplementary Fig. 47 source data): 3.101
- Th-T fluorescence, mean of three wells (reading M18, Supplementary Fig. 47 source data): 3.246
- Th-T fluorescence, mean of three wells (reading M19, Supplementary Fig. 47 source data): 3.285
- Th-T fluorescence, mean of three wells (reading M20, Supplementary Fig. 47 source data): 3.357
- Th-T fluorescence, mean of three wells (reading M21, Supplementary Fig. 47 source data): 3.385
- Th-T fluorescence, mean of three wells (reading M22, Supplementary Fig. 47 source data): 3.422
- Th-T fluorescence, mean of three wells (reading M23, Supplementary Fig. 47 source data): 3.453
- Th-T fluorescence, mean of three wells (reading M24, Supplementary Fig. 47 source data): 3.499
- Th-T fluorescence, mean of three wells (reading M25, Supplementary Fig. 47 source data): 3.518
- Th-T fluorescence, mean of three wells (reading M26, Supplementary Fig. 47 source data): 3.525
- Th-T fluorescence, mean of three wells (reading M27, Supplementary Fig. 47 source data): 3.564
- Th-T fluorescence, mean of three wells (reading M28, Supplementary Fig. 47 source data): 3.572
- Th-T fluorescence, mean of three wells (reading M29, Supplementary Fig. 47 source data): 3.591
- Th-T fluorescence, mean of three wells (reading M30, Supplementary Fig. 47 source data): 3.63
- Th-T fluorescence, mean of three wells (reading M31, Supplementary Fig. 47 source data): 3.6544
- Th-T fluorescence, mean of three wells (reading M32, Supplementary Fig. 47 source data): 3.711
- Th-T fluorescence, mean of three wells (reading M33, Supplementary Fig. 47 source data): 3.704
- Th-T fluorescence, mean of three wells (reading M34, Supplementary Fig. 47 source data): 3.671
- Th-T fluorescence, mean of three wells (reading M35, Supplementary Fig. 47 source data): 3.708
- Th-T fluorescence, mean of three wells (reading M36, Supplementary Fig. 47 source data): 3.706
- Th-T fluorescence, mean of three wells (time course, reading M57): 3.709
- Th-T fluorescence, mean of three wells (time course, reading M58): 3.763
- Th-T fluorescence, mean of three wells (time course, reading M59): 3.775
- Th-T fluorescence, mean of three wells (time course, reading M60): 3.734
- Th-T fluorescence, mean of three wells (time course, reading M61): 3.716
- Th-T fluorescence, mean of three wells (time course, reading M62): 3.783
- Th-T fluorescence, mean of three wells (time course, reading M63): 3.7203
- Th-T fluorescence, mean of three wells (time course, reading M64): 3.6972
- Th-T fluorescence, mean of three wells (time course, reading M65): 3.735
- Th-T fluorescence, mean of three wells (time course, reading M66): 3.755
- Th-T fluorescence, mean of three wells (time course, reading M67): 3.725
- Th-T fluorescence, mean of three wells (time-course reading M97, Supplementary Fig. 47 source data): 3.595
- Th-T fluorescence, mean of three wells (time-course reading M98, Supplementary Fig. 47 source data): 3.647
- Th-T fluorescence, mean of three wells (time-course reading M99, Supplementary Fig. 47 source data): 3.679
- Th-T fluorescence, mean of three wells (time-course reading M100, Supplementary Fig. 47 source data): 3.653
- Th-T fluorescence, mean of three wells (time-course reading M101, Supplementary Fig. 47 source data): 3.662
- Th-T fluorescence, mean of three wells (time-course reading M102, Supplementary Fig. 47 source data): 3.581
- Th-T fluorescence, mean of three wells (time-course reading M103, Supplementary Fig. 47 source data): 3.611
- Th-T fluorescence, mean of three wells (time-course reading M104, Supplementary Fig. 47 source data): 3.626
- Th-T fluorescence, mean of three wells (time-course reading M105, Supplementary Fig. 47 source data): 3.605
- Th-T fluorescence, mean of three wells (time-course reading M106, Supplementary Fig. 47 source data): 3.616
- Th-T fluorescence, mean of three wells (time-course reading M107, Supplementary Fig. 47 source data): 3.656
- Th-T fluorescence, mean of three wells (time-course reading M108, Supplementary Fig. 47 source data): 3.6
- Th-T fluorescence, mean of three wells (time-course reading M109, Supplementary Fig. 47 source data): 3.632
- Th-T fluorescence, mean of three wells (time-course reading M110, Supplementary Fig. 47 source data): 3.606
- Th-T fluorescence, mean of three wells (time-course reading M111, Supplementary Fig. 47 source data): 3.628
- Th-T fluorescence, mean of three wells (time-course reading M112, Supplementary Fig. 47 source data): 3.629
- Th-T fluorescence, mean of three wells (time-course reading M113, Supplementary Fig. 47 source data): 3.58
- Th-T fluorescence, mean of three wells (time-course reading M114, Supplementary Fig. 47 source data): 3.62
- Th-T fluorescence, mean of three wells (time-course reading M115, Supplementary Fig. 47 source data): 3.596
- Th-T fluorescence, mean of three wells (time-course reading M116, Supplementary Fig. 47 source data): 3.5953
SMILES: C=C1CCC2C(C)(CC(=O)C=C(C)C)C(O)CCC2(C)C1Cc1c(OC)oc(C)c(C)c1=O (centres unmarked) [Compound 25]
